The structures appear in SMILES notation. Some results are limits rather than exact numbers.

One data set relates to normotensive dogs. Description: Intraocular pressure and ocular surface hyperemia in normotensive dogs. It is filed as in vivo, dog. Details: maximum OSH score: scale not given here. The settings on record: once daily for 5 days; for change in vivo at 0.05 % / change in vivo at 0.1 %: Canis lupus familiaris, topical, 120 h, read-out: maximum IOP decrease from baseline. The protocol:
(§1) (Z)-7-[(1R,2S,3R,5R)-5-Chloro-2-(3,5-dichloro-phenoxymethyl)-3-hydroxy-cyclopentyl]-hept-5-enoic acid (15b) was tested at multiple concentrations in normotensive dogs, dosing once daily for 5 days. At 0.05%, the maximum IOP decrease from baseline was 4.3 mmHg (30%) at 6 h; the maximum OSH score was 0.6 at 6 h. […] This compound was also tested in laser-induced hypertensive monkeys, using one single day dose. At 0.1%, the maximum IOP decrease from baseline was 6 mmHg (19%) at 6 h.
(§2) (Z)-7-[(1R,2S,3R,5R)-5-Chloro-2-(3,5-dichloro-phenoxymethyl)-3-hydroxy-cyclopentyl]-hept-5-enoic acid isopropyl ester (42b) was tested in normotensive dogs at 0.05%, dosing once daily for 5 days. The maximum intraocular pressure (IOP) decrease from baseline was 3 mmHg (19%) at 6 h; the maximum ocular surface hyperemia (OSH) score was 0.6 at 74 h. This compound was also tested in laser-induced hypertensive monkeys, using one single day dose. At 0.01%, the maximum IOP decrease from baseline was 6 mmHg (16%) at 6 h.

For data set [1], the system named is laser-induced hypertensive monkeys. Briefly: Intraocular pressure in laser-induced hypertensive monkeys. It counts as in vivo, monkey. The settings on record: one single day dose. The protocol:
as §1, §2

Data set [2] addresses T1, hEP2 (Homo sapiens, UniProt P43116). Briefly: cAMP assay, hEP2. It counts as cell-based.
The target of data set [3] is T1, hEP2. Briefly: Competition binding, [3H]PGE2, human EP2 receptors. The arrangement: expressed in transfected cells; host or cells: HEK 293. To be noted: [3H]PGE2, HEK 293 cells stably expressing human EP2; read-out: hEP2 Ki. In short, it runs like this:
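HEK 293 membranes or cells stably expressing human EP2 were incubated with 10 nM [3H]PGE2 and test compound in HBSS/20 mM Hepes pH 7.3, 60 min at 23° C, then filtered. Non-specific binding defined with 10 μM PGE2; IC50 from single-site fit converted to Ki using KD 40 nM.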

The target of data set [4] is T2, hEP4 (Homo sapiens, UniProt P35408). Briefly: Radioligand binding, EP4 receptor. The arrangement: expressed in transfected cells; host or cells: HEK-293. To be noted: [3H]PGE2, HEK-293 cells expressing EP4. In short, it runs like this:
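HEK-293 membranes stably expressing human EP4, in TME buffer pH 7.4; competition vs 5 nM [3H]-PGE2, 60 min at 25 °C, stopped by GF/B filtration. Non-specific binding defined with 10^−5 M unlabeled PGE2; duplicates, at least three experiments.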

Data set [5] has as its target T1, hEP2. Briefly: FLIPR calcium signal, hEP2. It is filed as cell-based. The arrangement: expressed in transfected cells; host or cells: HEK-293(EBNA). The settings on record: HEK-293(EBNA) cells expressing hEP2/Gqs5. The gist of the method: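 HEK-293(EBNA) cells stably expressing a single human prostaglandin receptor (hDP/Gqs5 chimera for DP), Fluo-4 AM loaded, in HBSS-HEPES pH 7.4 at 37 °C. Peak calcium fluorescence scaled to buffer and receptor standard agonist; 10^−5 M single-point or 10^−5–10^−11 M curves, duplicates, n≥3.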

Data set [6] addresses T2, hEP4. Briefly: FLIPR calcium signal, hEP4. To be noted: HEK-293(EBNA) cells expressing hEP4/Gqs5. It is filed as cell-based. Details: expressed in transfected cells; host or cells: HEK-293(EBNA). The method, then:
Methods for FLIPR™ Studies
HEK-293(EBNA) cells, stably expressing one type or subtype of recombinant human prostaglandin receptors (prostaglandin receptors expressed: hDP/Gqs5; hEP1; hEP2/Gqs5; hEP3A/Gqi5; hEP4/Gqs5; hFP; hIP; hTP), were cultured in 100 mm culture dishes in high-glucose DMEM medium containing 10% fetal bovine serum, 2 mM 1-glutamine, 250 μg/ml geneticin (G418) and 200 μg/ml hygromycin B as selection markers, and 100 units/ml penicillin G, 100 μg/ml streptomycin and 0.25 μg/ml amphotericin B.
Cells were seeded at a density of 5×10^4 cells per well in Biocoat® Poly-D-lysine-coated black-wall, clear-bottom 96-well plates (Becton-Dickinson) and allowed to attach overnight in an incubator at 37° C. Cells were then washed two times with HBSS-HEPES buffer (Hanks Balanced Salt Solution without bicarbonate and phenol red, 20 mM HEPES, pH 7.4) using a Denley Cellwash plate washer (Labsystems). After 45 minutes of dye-loading in the dark, using the calcium-sensitive dye Fluo-4 AM at a final concentration of 2 μM, plates were washed four times with HBSS-HEPES buffer to remove excess dye leaving 100 μl in each well. Plates were re-equilibrated to 37° C. for a few minutes.
Cells were excited with an Argon laser at 488 nm, and emission was measured through a 510-570 nm bandwidth emission filter (FLIPR™, Molecular Devices, Sunnyvale, Calif.). Drug solution was added in a 50 μl volume to each well to give the desired final concentration. The peak increase in fluorescence intensity was recorded for each well. On each plate, four wells each served as negative (HBSS-HEPES buffer) and positive controls (standard agonists: BW245C (hDP); PGE2 (hEP1; hEP2/Gqs5; hEP3A/Gqi5; hEP4/Gqs5); PGF2α (hFP); carbacyclin (hIP); U-46619 (hTP), depending on receptor). The peak fluorescence change in each drug-containing well was then expressed relative to the controls.
Compounds were tested in a high-throughput (HTS) or concentration-response (CoRe) format. In the HTS format, forty-four compounds per plate were examined in duplicates at a concentration of 10^−5 M. To generate concentration-response curves, four compounds per plate were tested in duplicates in a concentration range between 10^−5 and 10^−11 M. The duplicate values were averaged. In either, HTS or CoRe format each compound was tested on at least 3 separate plates using cells from different passages to give an n≧3.

The mark [7] stands for this setting: Primates, topical, 0.1%, read-out: maximum IOP decrease from baseline.

T1 sequence (P43116 whole entry): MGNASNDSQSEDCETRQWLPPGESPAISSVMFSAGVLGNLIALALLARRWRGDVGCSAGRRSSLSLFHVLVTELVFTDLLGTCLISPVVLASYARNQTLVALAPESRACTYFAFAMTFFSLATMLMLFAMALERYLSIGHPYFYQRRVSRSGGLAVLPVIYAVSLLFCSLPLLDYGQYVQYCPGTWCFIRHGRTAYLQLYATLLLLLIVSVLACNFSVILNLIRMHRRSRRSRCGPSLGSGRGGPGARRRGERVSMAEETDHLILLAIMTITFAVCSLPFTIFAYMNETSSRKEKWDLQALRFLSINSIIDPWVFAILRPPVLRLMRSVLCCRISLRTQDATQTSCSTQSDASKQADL
T2 sequence (P35408 whole entry): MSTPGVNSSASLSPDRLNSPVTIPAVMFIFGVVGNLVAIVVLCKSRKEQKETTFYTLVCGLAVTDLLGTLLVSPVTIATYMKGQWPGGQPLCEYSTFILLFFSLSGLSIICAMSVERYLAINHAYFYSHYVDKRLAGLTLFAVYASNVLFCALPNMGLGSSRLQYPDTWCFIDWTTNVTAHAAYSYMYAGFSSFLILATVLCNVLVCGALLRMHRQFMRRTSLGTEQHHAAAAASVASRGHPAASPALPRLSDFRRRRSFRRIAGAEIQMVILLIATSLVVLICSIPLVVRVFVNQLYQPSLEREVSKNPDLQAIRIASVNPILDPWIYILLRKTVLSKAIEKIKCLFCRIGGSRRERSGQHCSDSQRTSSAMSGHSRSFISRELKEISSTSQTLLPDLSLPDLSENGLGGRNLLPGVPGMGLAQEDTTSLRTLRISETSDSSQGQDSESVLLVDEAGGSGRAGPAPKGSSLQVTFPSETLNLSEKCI

For `O=C(O)CCC/C=C\C[C@@H]1[C@@H](COc2cc(Cl)cc(Cl)c2)[C@H](O)C[C@H]1Cl` [Example 15b, (Z)-7-[(1R,2S,3R,5R)-5-Chloro-2-(3,5-dichloro-phenoxymethyl)-3-hydroxy-cyclopentyl]-hept-5-enoic acid], in the data set with normotensive dogs (0.05%), the “maximum IOP decrease from baseline” value is listed as 4.3 mmHg, the “maximum OSH score” value was 0.6, the “time of maximum IOP decrease” value came to 6 h and the “time of maximum OSH score” value was determined as 6 h. For the same compound, the change in vivo at 0.05 % in the data set on normotensive dogs (0.05%) was found to be 30%. For the same compound, in the data set with normotensive dogs (0.1%), the “maximum IOP decrease from baseline” value amounted to 4.8 mmHg, the “maximum OSH score” value was determined as 1.3, the “time of maximum IOP decrease” value was determined as 102 h and the “time of maximum OSH score” value is recorded as 6 h. Also, in the data set with normotensive dogs (0.1%), the change in vivo at 0.1 % was 34%. Also, in data set [1] (0.1%), the “maximum IOP decrease from baseline” value is 6 mmHg and the “time of maximum IOP decrease” value came to 6 h. Further, the change in vivo at 0.1 % in data set [1] (setting [7]) turned out to be 19%.

With `O=C(O)CCC/C=C\C[C@@H]1[C@@H](COc2ccc(Cl)c3ccccc23)[C@H](O)C[C@H]1Cl` [Example 40, (Z)-7-[(1R,2S,3R,5R)-5-Chloro-2-(4-chloro-naphthalen-1-yloxymethyl)-3-hydroxy-cyclopentyl]-hept-5-enoic acid], the EC50 (in general, the concentration giving half of the maximal effect) on hEP2 [2] was found to be 0.7 nM; at hEP2 [5], 29 nM; at hEP4 [6], 5890 nM. Further, the Ki (commonly the dissociation constant of the complex between target and ligand, obtained from inhibition or displacement) came to 2 nM at hEP2 [3] and 491 nM at hEP4 [4].

Take `O=C(O)CCC/C=C\C[C@@H]1[C@@H](COc2cc(C(F)(F)F)cc(Cl)c2F)[C@H](O)C[C@H]1Cl` [Example 41, (Z)-7-[(1R,2S,3R,5R)-5-Chloro-2-(3-chloro-2-fluoro-5-trifluoromethyl-phenoxymethyl)-3-hydroxy-cyclopentyl]-hept-5-enoic acid]: the concentration giving a half-maximal response (EC50) is 1.3 nM on hEP2 [2], 13 nM at hEP2 [5] and above 10000 nM on hEP4 [6]. The figures for the Ki on hEP2 [3] and at hEP4 [4] were 16 nM and 1710 nM, respectively.

On to `CC(C)OC(=O)CCC/C=C\C[C@@H]1[C@@H](COc2cc(Cl)cc(Cl)c2)[C@H](O)C[C@H]1Cl` [Example 42b, (Z)-7-[(1R,2S,3R,5R)-5-Chloro-2-(3,5-dichloro-phenoxymethyl)-3-hydroxy-cyclopentyl]-hept-5-enoic acid isopropyl ester], for which, in the data set with normotensive dogs (0.05%), the “maximum IOP decrease from baseline” value was found to be 3 mmHg, the “maximum OSH score” value worked out at 0.6, the “time of maximum IOP decrease” value was 6 h and the “time of maximum OSH score” value came to 74 h. The change in vivo at 0.05 % in the data set with normotensive dogs (0.05%) came to 19%. Further, in data set [1] (0.01%), the “maximum IOP decrease from baseline” value is recorded as 6 mmHg and the “time of maximum IOP decrease” value was 6 h. In data set [1] (Primates, topical, 0.01%, read-out: maximum IOP decrease from baseline), the change in vivo at 0.01 % was 16%.

For `CC(C)OC(=O)CCC/C=C\C[C@@H]1[C@@H](COc2ccc(CO)cc2)[C@H](O)C[C@H]1Cl` [Example 42bb, (Z)-7-[(1R,2S,3R,5R)-5-Chloro-3-hydroxy-2-(4-hydroxymethyl-phenoxymethyl)-cyclopentyl]-hept-5-enoic acid isopropyl ester], in the data set with normotensive dogs (0.1%), the “maximum IOP decrease from baseline” value came out at 4.6 mmHg, the “maximum OSH score” value worked out at 0.6, the “time of maximum IOP decrease” value is on record as 100 h and the “time of maximum OSH score” value is 30 h. Further, the change in vivo at 0.1 % in the data set with normotensive dogs (0.1%) is 33%. In data set [1] (0.1%), the “maximum IOP decrease from baseline” value amounted to 5.5 mmHg and the “time of maximum IOP decrease” value was found to be 6 h. Besides, the change in vivo at 0.1 % in data set [1] (setting [7]) was found to be 16%.

For the compound `CCCC(O)c1cccc(OC[C@@H]2[C@@H](C/C=C\CCCC(=O)O)[C@H](Cl)C[C@H]2O)c1` (stereo partly drawn) [Example 52, (Z)-7-{(1R,2S,3R,5R)-5-Chloro-3-hydroxy-2-[3-(1-hydroxy-butyl)-phenoxymethyl]-cyclopentyl}-hept-5-enoic acid], the values for the EC50 at hEP2 [2], on hEP2 [5] and at hEP4 [6] were 58 nM, 234 nM and above 10000 nM, respectively. Further, the values for the Ki on hEP2 [3] and at hEP4 [4] were 951 nM and above 10000 nM, respectively.

`O=C(O)CCC/C=C\C[C@@H]1[C@@H](COc2ccccc2CO)[C@H](O)C[C@H]1Cl` [Example 55, (Z)-7-[(1R,2S,3R,5R)-5-Chloro-3-hydroxy-2-(2-hydroxymethyl-phenoxymethyl)-cyclopentyl]-hept-5-enoic acid]: the results for the EC50 on hEP2 [2], on hEP2 [5] and at hEP4 [6] were 225 nM, 9490 nM and 12300 nM, respectively. The inhibitory constant (Ki) on hEP2 [3] was 4120 nM; at hEP4 [4] it was 1520 nM.

Take `O=C(O)CCC/C=C\C[C@@H]1[C@@H](COc2cccc3c2CCCC3O)[C@H](O)C[C@H]1Cl` (stereo partly drawn) [Example 60, (Z)-7-[(1R,2S,3R,5R)-5-Chloro-3-hydroxy-2-(5-hydroxy-5,6,7,8-tetrahydro-naphthalen-1-yloxymethyl)-cyclopentyl]-hept-5-enoic acid]: the EC50 on hEP2 [2] was found to be 1 nM; on hEP2 [5] it was 17 nM; at hEP4 [6], 6970 nM. In addition, the inhibition constant Ki on hEP2 [3] is 86 nM; on hEP4 [4] it was 1440 nM.

As to `CC(=O)OCc1cc(Cl)cc(OC[C@@H]2[C@@H](C/C=C\CCCC(=O)O)[C@H](Cl)C[C@H]2O)c1` [Example 64, (Z)-7-[(1R,2S,3R,5R)-2-(3-Acetoxymethyl-5-chloro-phenoxymethyl)-5-chloro-3-hydroxy-cyclopentyl]-hept-5-enoic acid], the results for the EC50 at hEP2 [2], at hEP2 [5] and at hEP4 [6] were 6.5 nM, 1110 nM and 7450 nM, respectively. Further, the inhibition constant (Ki) came to 65 nM at hEP2 [3] and 381 nM on hEP4 [4].

As for `O=C(O)CCC/C=C\C[C@@H]1[C@@H](COc2cc(Cl)cc(CO)c2)[C@H](O)C[C@H]1Cl` [Example 65, (Z)-7-[(1R,2S,3R,5R)-5-Chloro-2-(3-chloro-5-hydroxymethyl-phenoxymethyl)-3-hydroxy-cyclopentyl]-hept-5-enoic acid], the 50% effective concentration (EC50) was 2 nM on hEP2 [2], 520 nM on hEP2 [5] and 10600 nM on hEP4 [6]. Further, the figures for the Ki on hEP2 [3] and at hEP4 [4] were 64 nM and 497 nM, respectively.

These data come from patent US7405240B2, “Substituted cyclopentanes or cyclopentanones as therapeutic agents” (Allergan, Inc., priority 2006, dated 2008).
